Values after ≈ are worked out from the molar mass of the structure shown.
Key:
S. pneumoniae D39V [1] = assay: Bliss interaction score (quartile over a dose matrix) (fitness difference); higher = more antagonism (negative = synergy)
Summary of the method: (§1)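 Growth in each well was taken as OD595 at entry into stationary phase. Dividing by the plate's robust no-drug mean and capping at 1 gave fitness, and single-drug fitness was inferred from the combination data. The Bliss score, observed minus product-expected fitness, is summarised by quartiles over technical, biological and donor/recipient replicates.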

S. aureus Newman [2] = assay: as above
Summary of the method: as §1

B. subtilis 168 [3] = assay: as above
Summary of the method: as §1

S. aureus DSM 20231 [4] = assay: as above
Summary of the method: as §1

S. pneumoniae D39V [5] = assay: fitness (endpoint OD595 vs no drug) (fraction); higher = more growth
Summary of the method: (§2)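 Volumes were 30 µl per well, or 55 µl for S. pneumoniae, in 384-well plates inoculated at OD595 0.01. Media were TSB, LB Lennox or CY at 37 °C, and OD595 was read every 30 min for 14 h with first-reading background subtraction. Fitness is the ratio of optical density at stationary-phase entry to the robust mean of no-drug controls. That ratio is capped at 1.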

S. aureus Newman [6] = assay: as above
Summary of the method: as §2

B. subtilis 168 [7] = assay: as above
Summary of the method: as §2

S. aureus DSM 20231 [8] = assay: as above
Summary of the method: as §2

S. pneumoniae D39V [9] = system: S. pneumoniae D39V
S. aureus DSM 20231 [10] = system: S. aureus DSM 20231
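Wherever Bliss interaction score (quartile over a dose matrix) is given: first quartile when negative (synergy) and third quartile when positive (antagonism).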

Cc1onc(-c2ccccc2)c1C(=O)N[C@@H]1C(=O)N2[C@@H]1SC(C)(C)[C@@H]2C(=O)O [Oxacillin] + CN(N=O)C(=O)N[C@@H](C=O)[C@@H](O)[C@H](O)[C@H](O)CO [Streptozotocin]
Conditions | Bliss interaction score
B. subtilis 168 [3] | 0.0537
S. aureus DSM 20231 [4] | -0.0548
S. aureus Newman [2] | -0.0656
S. pneumoniae D39V [1] | -0.0748

fitness
Conditions | first compound 0.01 µg/mL | first compound 0.0156 µg/mL | first compound 0.02 µg/mL | first compound 0.0312 µg/mL | first compound 0.04 µg/mL | first compound 0.0625 µg/mL
S. aureus DSM 20231 [8], partner 0.15 µg/mL | – | 0.693 | – | 0.596 | – | 0.462
S. aureus DSM 20231 [8], partner 0.3 µg/mL | – | 0.635 | – | 0.582 | – | 0.493
S. aureus DSM 20231 [8], partner 0.6 µg/mL | – | 0.549 | – | 0.494 | – | 0.396
S. aureus Newman [6], partner 0.15 µg/mL | – | 0.663 | – | 0.613 | – | 0.538
S. aureus Newman [6], partner 0.3 µg/mL | – | 0.593 | – | 0.57 | – | 0.466
S. aureus Newman [6], partner 0.6 µg/mL | – | 0.454 | – | 0.387 | – | 0.228
S. pneumoniae D39V [5], partner 1.2 µg/mL | 0.941 | – | 0.889 | – | 0.243 | –
S. pneumoniae D39V [5], partner 2.4 µg/mL | 0.977 | – | 0.873 | – | 0.245 | –
S. pneumoniae D39V [5], partner 4.8 µg/mL | 0.927 | – | 0.866 | – | 0.212 | –

fitness, B. subtilis 168 [7], one replicate
Conditions | first compound 0.002 µg/mL | first compound 0.004 µg/mL | first compound 0.008 µg/mL | first compound 0.075 µg/mL | first compound 0.15 µg/mL | first compound 0.3 µg/mL
partner 0.15 µg/mL | ≥ 1 | ≥ 1 | 0.946 | 0.593 | 0.0403 | 0.0476
partner 0.3 µg/mL | 0.98 | ≥ 1 | 0.983 | 0.377 | 0.0243 | 0.0338
partner 0.6 µg/mL | 0.998 | ≥ 1 | 0.882 | 0.593 | 0.0217 | 0.0158

Oc1cc(Cl)ccc1Oc1ccc(Cl)cc1Cl [Triclosan]
Conditions | MIC [µg/mL]
S. aureus DSM 20231 [10] | 0.08 (≈ 0.276 µM)
S. pneumoniae D39V [9] | 16 (≈ 55.3 µM)

C[n+]1ccc(-c2cc[n+](C)cc2)cc1 [Paraquat] + CN1C2=CC=CC=C2N=C3C1=CC=CC3=O [Pyocyanin]
Conditions | Bliss interaction score
B. subtilis 168 [3] | -0.0646
S. aureus DSM 20231 [4] | -0.0554
S. aureus Newman [2] | 0.0765
S. pneumoniae D39V [1] | -0.0783

fitness
Conditions | first compound 1.25 µg/mL | first compound 1.5 µg/mL | first compound 2.5 µg/mL | first compound 3 µg/mL | first compound 5 µg/mL | first compound 6 µg/mL
B. subtilis 168 [7], partner 1.25 µg/mL | 0.918 | – | 0.903 | – | 0.802 | –
B. subtilis 168 [7], partner 2.5 µg/mL | 0.866 | – | 0.838 | – | 0.673 | –
B. subtilis 168 [7], partner 5 µg/mL | 0.721 | – | 0.707 | – | 0.534 | –
S. aureus DSM 20231 [8], partner 1.25 µg/mL | 0.918 | – | 0.931 | – | 0.905 | –
S. aureus DSM 20231 [8], partner 2.5 µg/mL | 0.891 | – | 0.879 | – | 0.858 | –
S. aureus DSM 20231 [8], partner 5 µg/mL | 0.627 | – | 0.647 | – | 0.595 | –
S. aureus Newman [6], partner 1.25 µg/mL | 0.838 | – | 0.799 | – | 0.825 | –
S. aureus Newman [6], partner 2.5 µg/mL | 0.821 | – | 0.776 | – | 0.751 | –
S. aureus Newman [6], partner 5 µg/mL | 0.401 | – | 0.382 | – | 0.366 | –
S. pneumoniae D39V [5], partner 0.325 µg/mL | – | ≥ 1 | – | ≥ 1 | – | ≥ 1
S. pneumoniae D39V [5], partner 0.65 µg/mL | – | 0.954 | – | 0.97 | – | 0.955

S. pneumoniae D39V [5], partner 1.3 µg/mL, one replicate
Conditions | fitness
first compound 1.5 µg/mL | 0.528
first compound 3 µg/mL | 0.597
first compound 6 µg/mL | 0.601

— the supplement of paper PMC10627819
